The values that follow come from ChEMBL document CHEMBL5506008, “Synthesis and biological evaluation of 1-phenyl-tetrahydro-β-carboline-based first dual PRMT5/EGFR inhibitors as potential anticancer agents” (Eur J Med Chem, 2024).

Format in all cases: functional
In experiment [1] the test system is MCF7. Description: Induction of apoptosis in human MCF7 cells assessed as dead cells at 50 nM measured after 48 hrs by Annexin V-FITC staining based flow cytometry analysis (reference value: 0.02%). In general terms: A flow cytometer gives signals particle by particle.
The subject of experiment [2] is MCF7. Put plainly: Induction of apoptosis in human MCF7 cells assessed as live cells at 50 nM measured after 48 hrs by Annexin V-FITC staining based flow cytometry analysis (reference value: 99.26%).
Experiment [3] deals with MCF7. Put plainly: Induction of cell cycle arrest in human MCF7 cells assessed as accumulation of cells at G1 phase at 25 nM incubated for 48 hrs by PI/RNase staining based flow cytometry analysis (reference value: 48.01%).
Experiment [4] relates to MCF7. Put plainly: Induction of cell cycle arrest in human MCF7 cells assessed as accumulation of cells at S phase at 25 nM incubated for 48 hrs by PI/RNase staining based flow cytometry analysis (reference value: 44.87%).
Experiment [5] concerns MCF7. Description: Induction of cell cycle arrest in human MCF7 cells assessed as accumulation of cells at G2 phase at 50 nM incubated for 48 hrs by PI/Rnase staining based flow cytometry analysis (reference value: […]%).
For experiment [6], the system named is MCF7. Description: Induction of apoptosis in human MCF7 cells assessed as early apoptotic cells at 50 nM measured after 48 hrs by Annexin V-FITC staining based flow cytometry analysis (reference value: 0.58%).
Experiment [7] relates to MCF7. Put plainly: Induction of apoptosis in human MCF7 cells assessed as late apoptotic cells at 25 nM measured after 48 hrs by Annexin V-FITC staining based flow cytometry analysis (reference value: 0.14%).
The subject of experiment [8] is MCF7. Description: Induction of apoptosis in human MCF7 cells assessed as dead cells at 25 nM measured after 48 hrs by Annexin V-FITC staining based flow cytometry analysis (reference value: 0.02%).
The test system of experiment [9] is MCF7. Put plainly: Induction of cell cycle arrest in human MCF7 cells assessed as accumulation of cells at G1 phase at 50 nM incubated for 48 hrs by PI/RNase staining based flow cytometry analysis (reference value: 48.01%).
The test system of experiment [10] is MCF7. Put plainly: Induction of cell cycle arrest in human MCF7 cells assessed as accumulation of cells at G2 phase at 25 nM incubated for 48 hrs by PI/Rnase staining based flow cytometry analysis (reference value: […]%).
For experiment [11], the system named is MCF7. Description: Induction of apoptosis in human MCF7 cells assessed as late apoptotic cells at 50 nM measured after 48 hrs by Annexin V-FITC staining based flow cytometry analysis (reference value: 0.14%).
Experiment [12] concerns MCF7. Description: Induction of apoptosis in human MCF7 cells assessed as early apoptotic cells at 25 nM measured after 48 hrs by Annexin V-FITC staining based flow cytometry analysis (reference value: 0.58%).
The test system of experiment [13] is MCF7. Put plainly: Induction of apoptosis in human MCF7 cells assessed as live cells at 25 nM measured after 48 hrs by Annexin V-FITC staining based flow cytometry analysis (reference value: 99.26%).
Experiment [14] relates to MCF7. Description: Induction of cell cycle arrest in human MCF7 cells assessed as accumulation of cells at S phase at 50 nM incubated for 48 hrs by PI/RNase staining based flow cytometry analysis (reference value: 44.87%).

As for `O=C(NC[C@H](O)CN1CCc2ccccc2C1)c1cc(NC2COC2)ncn1`, the Activity is listed as 3.17% in experiment [1]; 88.73% in [2]; 56.22% in experiment [3]; 43.56% in experiment [4]; 9.98% in experiment [5]; 3.79% in experiment [6]. Moreover, the Activity in experiment [7] was 0.83%; in [8] it was 1.47%; in experiment [9] it was 66.11%; in experiment [10] it was 0.13%; in experiment [11], 4.31%; in [12], 1.41%. In addition, the results for the Activity in experiment [13] and in experiment [14] were 96.29% and 22.78%, respectively.
